Data set [1] concerns HaCaT noncancerous keratinocyte cell line. In words: MTT cell viability assay, 72 h, HaCaT. Particulars: for IC50: Homo sapiens, HaCaT, MTT assay, 72 h incubation, mean ± SD. The format is cell-based. The protocol:
(§1) Compounds 7–36 and 47–54 were tested regarding their effect on growth of three human cancer cell lines: colon cancer HCT-116, breast cancer MCF-7 and cervical cancer HeLa, as well as on noncancerous keratinocyte cell line HaCaT. Cell viability was measured with MTT assay after 72 h of incubation with tested compound in five concentration 1–100 μM. The MTT test enables us to quantify the living cells by measuring the activity of mitochondrial enzymes, enables reducing tetrazolium dye MTT to purple formazan. In this manner, IC50—molar concentration [µM] that inhibits 50% net cell growth—was determined (Table 1 and Table 2).
(§2) All chemicals, if not stated otherwise, were obtained from Sigma-Aldrich (St. Louis, MO, USA). The MCF-7, HeLa and HaCaT cell lines were purchased from Cell Lines Services (Eppelheim, Germany), the HCT-116 cell line were obtained from ATCC (ATCC-No: CCL-247). Cells were cultured in Dulbecco’s modified Eagle’s medium (DMEM) supplemented with 10% fetal bovine serum, 2 mM glutamine, 100 units/mL penicillin, and 100 μg/mL streptomycin. Cultures were maintained in a humidified atmosphere with 5% CO2 at 37 °C in an incubator (HeraCell, Heraeus, Langenselbold, Germany). Cell viability was determined using the MTT [3-(4,5-dimethylthiazol-2-yl)-2,5-diphenyl-tetrazolium bromide] assay. Stock solutions of the studied compounds were obtained in 100% DMSO. […] Cells were seeded in 96-well plates at a density of 5 × 10^3 cells/well and treated for 72 h with the examined compounds in the concentration range 1–100 μM (1, 10, 25, 50 and 100 μM). Following treatment, MTT (0.5 mg/mL) was added to the medium and cells were further incubated for 2 h at 37 °C. Cells were lysed with DMSO and the absorbance of the formazan solution was measured at 550 nm with a plate reader Victor 1420 multilabel counter, (PerkinElmer, Inc. Waltham, MA USA). […] The experiment was performed in triplicate. Values are expressed as the mean ± SD of at least three independent experiments
Background: Tetrazolium dyes change colour on reduction, which living cells bring about.

For data set [2] the test system is unchanged. Details: method as in PMID 28364658. Conditions: MTT assay, 72 h incubation; compounds marked [18] ref 18; cited from earlier work.
The subject of data set [3] is HCT-116 cells (colon cancer). As to the kind of experiment: MTT cell viability assay, 72 h, HCT-116. It counts as cell-based, human. Conditions: for IC50: MTT assay, 72 h incubation, mean ± SD. As for the experimental part:
as §1, §2

Data set [4] has as its system MCF-7 cells (breast cancer). As to the kind of experiment: MTT cell viability assay, 72 h, MCF-7. Particulars: for IC50: Homo sapiens, MCF7, 72 h, MTT assay, 72 h incubation, mean ± SD. The format is cell-based, human. The protocol: as §1, §2
Data set [5] relates to HeLa cells (cervical cancer). As to the kind of experiment: MTT cell viability assay, 72 h, HeLa. The format is cell-based, human. Particulars: for IC50: Homo sapiens, HeLa, 72 h, MTT assay, 72 h incubation, mean ± SD. As for the experimental part: as §1, §2

These results are taken from article PMC7139731, “Synthesis, Anticancer Evaluation and Structure-Activity Analysis of Novel (E)- 5-(2-Arylvinyl)-1,3,4-oxadiazol-2-yl)benzenesulfonamides” (International Journal of Molecular Sciences, 2020).

One may read the IC50 as the concentration needed to halve the response being measured. The term melting point denotes the temperature, or range, at which the solid turns liquid.

Several values for one entry are separate records, joined by “and”; a condition that tells them apart may be missing. Equal entries are not always repeated. Where two headings read alike, the source gives them in different places.

`NS(=O)(=O)c1cc(-c2nnc(/C=C/c3ccccc3)o2)c(Cl)cc1SCc1ccccc1` [Compound 8]: the “activity against HaCaT compared with cancer lines” value in data set [1] (in words) is given as “at the same level as against cancer lines”. Further, the IC50 in data set [2] is 20 ± 1 µM.

As for `NS(=O)(=O)c1cc(-c2nnc(/C=C/c3c(Cl)cccc3Cl)o2)c(Cl)cc1SCc1ccccc1` [Compound 14], in data set [2], the IC50 is 160 ± 2 µM.

As for `NS(=O)(=O)c1cc(-c2nnc(/C=C/c3ccc(Br)cc3)o2)c(Cl)cc1SCc1ccccc1` [Compound 16], in data set [2], the IC50 was 31 ± 1 µM.

Regarding `NS(=O)(=O)c1cc(-c2nnc(/C=C/c3ccncc3)o2)c(Cl)cc1SCc1ccccc1` [Compound 24, (E)-2-(Benzylthio)-4-chloro-5-(5-(2-(pyridin-4-yl)vinyl)-1,3,4-oxadiazol-2-yl)benzenesulfonamide], the concentration for half-maximal inhibition (IC50) in data set [3] (Homo sapiens, HCT-116, 72 h) was found to be 31 ± 1 µM; in data set [4] it was 225 ± 11 µM; in data set [5], 135 ± 8 µM; in data set [1], 150 ± 8 µM.

Consider `NS(=O)(=O)c1cc(-c2nnc(/C=C/c3ccccn3)o2)c(Cl)cc1SCc1ccccc1` [Compound 28, (E)-2-(Benzylthio)-4-chloro-5-(5-(2-(pyridin-2-yl)vinyl)-1,3,4-oxadiazol-2-yl)benzenesulfonamide], for which the melting point is 254 to 257 °C (dec.). Half-maximal inhibition in data set [3] (Homo sapiens, HCT-116, 72 h) (IC50) required 25 ± 1 µM. The compound further returned a half-inhibitory concentration (IC50) in data set [4] of 115 ± 3 µM. In data set [5], this compound yielded an IC50 of 130 ± 6 µM. Half-maximal inhibition in data set [1] (IC50) required 140 ± 10 µM.

As to `NS(=O)(=O)c1cc(-c2nnc(/C=C/c3cccs3)o2)c(Cl)cc1SCc1ccccc1` [Compound 30, (E)-2-(Benzylthio)-4-chloro-5-(5-(2-(thiophen-2-yl)vinyl)-1,3,4-oxadiazol-2-yl)benzenesulfonamide], the concentration for half-maximal inhibition (IC50) was 32 ± 2 µM in data set [3] (Homo sapiens, HCT-116, 72 h); 66 ± 2 µM in data set [4]; 87 ± 3 µM in data set [5]; 85 ± 4 µM in data set [1].

For `NS(=O)(=O)c1cc(-c2nnc(/C=C/c3ccc([N+](=O)[O-])s3)o2)c(Cl)cc1Cl` [Compound 31, (E)-2,4-Dichloro-5-(5-(2-(5-nitrothiophen-2-yl)vinyl)-1,3,4-oxadiazol-2-yl)benzenesulfonamide], the IC50 was 0.5 to 4.5 µM in data set [3] (Homo sapiens, HCT-116, 72 h); 0.5 µM and 0.52 µM in data set [3]; 8.1 ± 0.5 µM in data set [1]. Also, the “increase of activity towards HCT-116 on addition of nitro group (31 vs 29)” value in data set [3] (compared with compound 29) is recorded as “over 200 times”. Besides, in data set [4] (compared with compound 29), the “increase of activity towards MCF-7 on addition of nitro group (31 vs 29)” value is reported as 43 times. Further, in data set [5] (compared with compound 29), the “increase of activity towards HeLa on addition of nitro group (31 vs 29)” value was determined as 54 times.

On to `NS(=O)(=O)c1cc(-c2nnc(/C=C/c3ccc([N+](=O)[O-])s3)o2)c(Cl)cc1SCc1ccccc1` [Compound 32, (E)-2-(Benzylthio)-4-chloro-5-(5-(2-(5-nitrothiophen-2-yl)vinyl)-1,3,4-oxadiazol-2-yl)benzenesulfonamide], for which the IC50 in data set [3] (Homo sapiens, HCT-116, 72 h) amounted to 17 ± 1 µM; in data set [4], 55 ± 3 µM; in data set [5], 58 ± 2 µM; in data set [1], 57 ± 1 µM.

On to `NS(=O)(=O)c1cc(-c2nnc(/C=C/c3ccco3)o2)c(Cl)cc1Cl` [Compound 33, (E)-2,4-Dichloro-5-(5-(2-(furan-2-yl)vinyl)-1,3,4-oxadiazol-2-yl)benzenesulfonamide], for which the half-inhibitory concentration (IC50) in data set [3] (Homo sapiens, HCT-116, 72 h) came out at 33 ± 1 µM; in data set [4] it was 170 ± 9 µM; in data set [5] it was 210 ± 8 µM; in data set [1], 200 ± 12 µM.

In the case of `NS(=O)(=O)c1cc(-c2nnc(/C=C/c3ccco3)o2)c(Cl)cc1SCc1ccccc1` [Compound 34, (E)-2-(Benzylthio)-4-chloro-5-(5-(2-(furan-2-yl)vinyl)-1,3,4-oxadiazol-2-yl)benzenesulfonamide], the IC50 in data set [3] (Homo sapiens, HCT-116, 72 h) amounted to 27.8 ± 0.3 µM; in data set [4] it was 62 ± 1 µM; in data set [5], 85 ± 3 µM; in data set [1] it was 91 ± 3 µM.

Consider `NS(=O)(=O)c1cc(-c2nnc(/C=C/c3ccc([N+](=O)[O-])o3)o2)c(Cl)cc1SCc1ccccc1` [Compound 35, (E)-2-(Benzylthio)-4-chloro-5-(5-(2-(5-nitrofuran-2-yl)vinyl)-1,3,4-oxadiazol-2-yl)benzenesulfonamide], for which the IC50 in data set [3] (Homo sapiens, HCT-116, 72 h) worked out at 4 µM; in data set [3], 4.1 ± 0.2 µM; in data set [4] it was 150 ± 8 µM; in data set [5] it was 69 ± 3 µM; in data set [1], 87 ± 4 µM. In addition, in data set [3] (selectivity HCT-116 vs HaCaT), the “times more active against HCT-116 than HaCaT” value is recorded as 22 times. In addition, in data set [3] (selectivity HCT-116 vs HeLa), the “times more active against HCT-116 than HeLa” value worked out at 17 times. Moreover, in data set [3] (selectivity HCT-116 vs MCF-7), the “times more active against HCT-116 than MCF-7” value was 37 times. For the same compound, the “selectivity index SI (IC50 for HaCaT cell line/IC50 for cancerous cell line)” value in data set [1] (cancer line not given, active derivatives (IC50 for cancer line ≤ 25 µM)) is listed as 22.

For `NS(=O)(=O)c1cc(-c2nnc(/C=C/c3ccc[nH]3)o2)c(Cl)cc1Cl` [Compound 36, (E)-5-(5-(2-(1H-Pyrrol-2-yl)vinyl)-1,3,4-oxadiazol-2-yl)-2,4-dichlorobenzenesulfonamide], the IC50 in data set [3] (Homo sapiens, HCT-116, 72 h) stood at 39 ± 1 µM; in data set [4] it was 40 ± 1 µM; in data set [5] it was 73 ± 3 µM; in data set [1] it was 98 ± 4 µM.

`NS(=O)(=O)c1ccc(-c2nnc(/C=C/c3ccc(Cl)cc3)o2)cc1` [Compound 48, (E)-4-(5-(4-chlorostyryl)-1,3,4-oxadiazol-2-yl)benzenesulfonamide]: the concentration for half-maximal inhibition (IC50) in data set [3] (Homo sapiens, HCT-116, 72 h) was 105 ± 5 µM; in data set [4], 76 ± 4 µM; in data set [5], 25 ± 3 µM; in data set [1], 95 ± 4 µM.

Turning to `N#Cc1ccc(/C=C/c2nnc(-c3ccc(S(N)(=O)=O)cc3)o2)cc1` [Compound 49, (E)-4-(5-(4-Cyanostyryl)-1,3,4-oxadiazol-2-yl)benzenesulfonamide], the IC50 in data set [3] (Homo sapiens, HCT-116, 72 h) worked out at 32 ± 2 µM; in data set [4], 75 ± 4 µM; in data set [5] it was 99 ± 3 µM; in data set [1], 98 ± 4 µM.
